From patent US9573972B2, “Nurotoxic sterol glycosides” (priority 2008, dated 2017)
Several values for one entry are separate records, joined by “and”; a condition that tells them apart may be missing. Equal values may be shown once. Marks after values point to notes of the source that are not given here.

Assays:
[1] = tested on: Activating transcription factor-3; test: Anti-ATF-3 immunofluorescence; assay type: in vivo, mouse; details: for Anti-ATF-3, change: SG-fed vs control
Description: Tissue-mounted slides were processed for fluorescence microscopy as follows: Sections were rinsed in coplin jars for 45 minutes at room temperature (RT) in three changes of PBS. Sections were then incubated at RT for 30 minutes in a blocking permeabilization solution made of 5% normal goat serum (NGS), 5% normal rabbit serum (NRS) or 5% BlokHen II (Ayes Labs, Inc., Tigard, Oreg.), 0.05% Triton X-100 and PBS. Subsequently, the blocking solution was tipped off and the slides were rinsed in PBS for 2 minutes. […]

[2] = tested on: Phosphorylated TDP-43 aggregates; test: TDP-43 immunofluorescence; assay type: in vivo, mouse; design: key to Phosphorylated TDP-43 aggregates: − = not present; + = present; details: for Phosphorylated TDP-43 aggregates: SG-fed
Description: Tissue-mounted slides were processed for fluorescence microscopy as follows: Sections were rinsed in coplin jars for 45 minutes at room temperature (RT) in three changes of PBS. Sections were then incubated at RT for 30 minutes in a blocking permeabilization solution made of 5% normal goat serum (NGS), 5% normal rabbit serum (NRS) or 5% BlokHen II (Ayes Labs, Inc., Tigard, Oreg.), 0.05% Triton X-100 and PBS. Subsequently, the blocking solution was tipped off and the slides were rinsed in PBS for 2 minutes. Sections were then incubated overnight in a humidified chamber at 4° C. with a PBS buffered solution that contained 1% NGS or 1% NRS, 1% bovine serum albumin (BSA) and one of the following primary antibodies: (a) rabbit anti-human/mouse ATF-3 (H-90) IgG (polyclonal, 1:500; Santa Cruz Biotechnology, Inc., Santa Cruz, Calif.), (b) anti-activated caspase-3 IgG (monoclonal, 1:250; Chemicon International, Temecula, Calif.) (see FIG. 9), (c) goat antihuman/mouse choline acetyl transferase (ChAT) IgG (polyclonal, 1:100; Chemicon International, Temecula, Calif.) (see FIG. 6), (d) rabbit anti-mouse glial fibrillary acidic protein IgG (polyclonal, 1:250; GeneTex Inc., San Antonio, Tex.) (see FIG. 7), (e) rabbit antihuman/mouse ionized calcium binding adaptor molecule 1 (IBA-1) IgG (polyclonal, 1:500; Wako Pure Chemical Industries, Ltd, Richmond, Va.), (f) mouse anti-human/mouse clone AT8 PHF-1 Tau (monoclonal, 1:200; Pierce Biotechnology Inc., Rockford, Ill.), (g) rabbit anti-human/mouse TAR DNA-binding protein 43 (TDP43) (1:100; ProteinTech Group Inc., Chicago, Ill.) (See FIG. 14), (h) chicken anti-human/mouse β-tubulin 3 (TuJ1 antigen) (polyclonal, 1:100, Ayes Labs, Inc., Tigard, Oreg.), (i) rabbit anti-mouse tyrosine hydroxylase (polyclonal, 1:500, Chemicon International, Temecula, Calif. or polyclonal 1:1000, Affinity BioReagents, Golden, Colo.) (FIG. 10), (j) rabbit anti human/mouse anti-pJunscr73 IgG (polyclonal, 1:200; Chemicon International, Temecula, Calif.), (k) rabbit anti human/mouse anti-HSP-70 IgG (polyclonal, 1:200; Chemicon International, Temecula, Calif.), or (1) rabbit anti human/mouse anti-HSP-25 IgG (polyclonal, 1:100; Chemicon International, Temecula, Calif.). In each experiment, additional slides were incubated with the primary antibody and the secondary antibody omitted or with secondary antibody and primary antibody omitted to test for nonspecific staining. Where appropriate, positive control slides (Alzheimer's disease patient entorhinal cortex, obtained from Drs. Claudia Schwab and Patrick McGeer of the Kinsmen Laboratory, University of British Columbia, Vancouver, BC, Canada) were also processed as above for comparison. […]

In the case of `CC[C@H](/C=C/[C@@H](C)[C@H]1CC[C@H]2[C@@H]3CC=C4C[C@@H](O[C@@H]5O[C@H](CO)[C@@H](O)[C@H](O)[C@H]5O)CC[C@]4(C)[C@H]3CC[C@]12C)C(C)C` [SG, Stigmasterol β-D-Glucopyranoside], the “Anti-ATF-3 immunoreactive cells over time, change” value ([1]; SG-fed group over time (35 to 52 wk)) is reported as “Anti-ATF-3 immunoreactive cells (SG-fed group over time): −48%***”, the “Anti-ATF-3, change” value ([1]; Time-point 1 (35 wk)) is reported as “Anti-ATF-3: +242% ***” and the “Anti-ATF-3, change” value ([1]; Time-point 2 (52 wk)) is reported as “Anti-ATF-3: +101%**”. The “Phosphorylated TDP-43 aggregates” value ([2]; Time-point 1 (35 wk)) was “No abnormal translocation of TDP-43 was observed and −”, the “Phosphorylated TDP-43 aggregates” value ([2]; Time-point 2 (52 wk)) was “+” and the “TDP-43 pathology, incidence in SG-fed group” value ([2]; Time-point 2 (52 wk), lumbar spinal cord) was “Two of eight and 2/8”. The “Pathologic phosphorylated TDP-43-containing aggregates, quantification” value ([2]; lumbar spinal cord, SG-fed animals) was “increased”.
